Here are results for 31 compounds from PubChem BioAssay (NCI).

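48-hour exposure; five concentrations; linearly interpolated endpoints. Here, GI50 denotes the concentration required for 50% inhibition of growth. Definition used: TGI = concentration required for complete inhibition of growth.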

The test system of one test is UACC-62 melanoma. Put plainly: growth of human tumour cells (NCI), 48 h.
In the case of `COc1cc2c(c(OC)c1OC)-c1ncc3cc4c(cc3c1C2)OCO4`, the GI50 was 19.3 µM and the TGI is more than 100 µM.
On the same counts, the results for `CC1=C(C(=O)Nc2ccc(Cl)c(Cl)c2)C(c2cccc(Oc3ccccc3)c2)NC(=O)N1` (stereo unspecified) are 6.27 µM and 14.1 µM.
Take `CC1COC(C)(C)P(=O)(c2ccccc2)C1` (stereo unspecified): the TGI was more than 100 µM.
As for `Cc1ccc(S(=O)(=O)c2ccc(N)cc2)cc1`, the TGI is more than 100 µM.
The compound `CCOP(=O)(OCC)OC1C=CC2CCC1C2` (stereo unspecified) displayed a TGI of more than 100 µM.
On the same count and under the same terms, the figure for `COc1cc(C=O)c(-c2cc(OC)c(OC)cc2C=O)cc1OC` is more than 100 µM; for `N#CC(C(=O)C(=O)Nc1ccc(Cl)cc1)c1ccccc1` (stereo unspecified) it is 77.9 µM.
In the case of `COc1c[c]([Hg][O]C(C)=O)c(OC)c(NC(=O)CC(C)=O)[c]1[Hg][O]C(C)=O`, the GI50 is 11.4 µM and the TGI stood at 24.1 µM.
`COC(=O)/C=C1\CCC(C)O1` (stereo unspecified) had a TGI of more than 100 µM.
Still for that read-out and setting: the same measure for `O=C(/C=C/c1ccccc1Cl)NC1C=Nc2ccc([N+](=O)[O-])cc2NC1` (stereo unspecified): more than 100 µM.
On the same count and under the same terms, the same measure for `CCCO/S(=N\S(=O)(=O)c1ccccc1)c1ccccc1[N+](=O)[O-]` (stereo unspecified): more than 100 µM; for `Cc1ccc(C)c(N=C2NC(=O)C(CC(=O)Nc3ccc(Cl)cc3Cl)S2)c1` (stereo unspecified): more than 100 µM; for `C/C(CC(=O)Nc1cccc(Cl)c1C)=N\NC(=O)c1ccncc1`: more than 100 µM.
In turn, `Cc1cc(NS(=O)(=O)c2ccc(Nc3c4ccccc4nc4c(C(=O)N5CCN(CCO)CC5)ccc(Cl)c34)cc2)no1` yielded a TGI of more than 100 µM.
`COc1ccc(-c2ccc(-c3ccc(C(=N)N)s3)s2)cc1`: the GI50 is 0.188 µM and the TGI came out at 0.357 µM.
Regarding `Cc1nc([N+](=O)[O-])cn1CC(=N)N`, the TGI was more than 100 µM.
The same measure, in the same setting: the same measure for `COC(=O)/C=C/c1c(CC=C(C)C)ncn1C`: more than 100 µM; for `CC(C)C(=O)Nc1nc2c(ncn2C2OC(CO)C(O)C2O)c(=O)[nH]1` (stereo unspecified): more than 100 µM.
In the case of `O=S(=O)(c1ccccc1)C1CN2OC1(S(=O)(=O)c1ccccc1)CC2c1ccc(Br)cc1` (stereo unspecified), the TGI is more than 100 µM.
Still for that read-out and setting: the same measure for `O=Cc1ccc2c(c1-c1c(C=O)ccc3c1OCO3)OCO2`: more than 100 µM.
`O=C1NC(=NCCc2cccc(Cl)c2)S/C1=C\c1ccc2ncccc2c1`: the GI50 was more than 25 µM and the TGI is more than 25 µM.
Compound `CC(=O)O[C@H]1CCC2[C@@H]3CCC4Nc5[nH]ncc5C[C@]4(C)C3CC[C@@]21C` (stereo partly specified) showed a TGI of 60.3 µM.
For `Cc1cc(C)nc(NS(=O)(=O)c2ccc(NC(=O)c3cccc4c(Nc5ccc(S(N)(=O)=O)cc5)c5ccccc5nc34)cc2)n1`, the TGI is more than 100 µM.
In turn, `Cc1cc(S(=O)(=O)O)c(NC(=O)C(=O)Cc2cc(=O)oc3cc(O)ccc23)cc1Cl` gave a TGI of more than 100 µM.

A further test has as its system UO-31 renal. The test is described as follows: growth of human tumour cells (NCI), 48 h.
The compound `CC(C)C(=O)NS(=O)(=O)c1ccccc1` registered a TGI of more than 100 µM.
Still for that read-out and setting: the figure for `COC1(OC)CC2C(=O)N(Cc3ccccc3)C1C=C2S(=O)(=O)c1ccccc1` (stereo unspecified) is 65.1 µM.
For the compound `CC(=O)[O][Ga]([Br])[O]C(C)=O`, the GI50 is more than 100 µM and the TGI is more than 100 µM.
As to `COc1cc2c(OC)cc1CSCc1sc(C)c(c1Br)CSC2`, the TGI is more than 100 µM.
`CC(C)N(C(=O)C12C3C4C1(I)C1C2C3(I)C41C(=O)N(C(C)C)C(C)C)C(C)C` (stereo unspecified): the TGI was more than 100 µM.
The compound `Cc1cccc(C)c1NC(=O)C(=O)C(C(=O)c1ccccc1-c1ccccc1)C1OC(=O)c2ccccc21` (stereo unspecified) returned a TGI of 57.6 µM.
On to `COc1cc2c(c(OC)c1OC)-c1ncc3cc4c(cc3c1C2)OCO4`, for which the GI50 is 12.5 µM and the TGI came to 74.6 µM.
The corresponding values for `CC1=C(C(=O)Nc2ccc(Cl)c(Cl)c2)C(c2cccc(Oc3ccccc3)c2)NC(=O)N1` (stereo unspecified) are 4.74 µM and more than 50 µM.
With `CC1COC(C)(C)P(=O)(c2ccccc2)C1` (stereo unspecified), the TGI is more than 100 µM.
For the compound `Cc1ccc(S(=O)(=O)c2ccc(N)cc2)cc1`, the TGI was more than 100 µM.
The compound `CCOP(=O)(OCC)OC1C=CC2CCC1C2` (stereo unspecified) gave a TGI of more than 100 µM.
The same measure, in the same setting: the same measure for `COC(=O)[C@H]1C=C[C@@H](C)n2c(=O)c3cc4ccccc4cc3c(=O)n21`: more than 100 µM.
Consider `COc1cc(C=O)c(-c2cc(OC)c(OC)cc2C=O)cc1OC`, for which the TGI was more than 100 µM.
Same read-out and setting: the same measure for `N#CC(C(=O)C(=O)Nc1ccc(Cl)cc1)c1ccccc1` (stereo unspecified): more than 100 µM.
As to `COc1c[c]([Hg][O]C(C)=O)c(OC)c(NC(=O)CC(C)=O)[c]1[Hg][O]C(C)=O`, the GI50 is 19.2 µM and the TGI came out at 33.3 µM.
Compound `COC(=O)/C=C1\CCC(C)O1` (stereo unspecified) gave a TGI of more than 100 µM.
The compound `O=C(/C=C/c1ccccc1Cl)NC1C=Nc2ccc([N+](=O)[O-])cc2NC1` (stereo unspecified) yielded a TGI of more than 100 µM.
Regarding `CCCO/S(=N\S(=O)(=O)c1ccccc1)c1ccccc1[N+](=O)[O-]` (stereo unspecified), the TGI was more than 100 µM.
As for `Cc1ccc(C)c(N=C2NC(=O)C(CC(=O)Nc3ccc(Cl)cc3Cl)S2)c1` (stereo unspecified), the TGI was more than 100 µM.
The same measure, in the same setting: the same measure for `C/C(CC(=O)Nc1cccc(Cl)c1C)=N\NC(=O)c1ccncc1`: more than 100 µM; for `Cc1cc(NS(=O)(=O)c2ccc(Nc3c4ccccc4nc4c(C(=O)N5CCN(CCO)CC5)ccc(Cl)c34)cc2)no1`: more than 100 µM.
As to `COc1ccc(-c2ccc(-c3ccc(C(=N)N)s3)s2)cc1`, the GI50 is 0.181 µM and the TGI was determined as 0.355 µM.
For the compound `Cc1nc([N+](=O)[O-])cn1CC(=N)N`, the TGI is more than 100 µM.
The compound `COC(=O)/C=C/c1c(CC=C(C)C)ncn1C` registered a TGI of more than 92.7 µM.
The compound `CC(C)C(=O)Nc1nc2c(ncn2C2OC(CO)C(O)C2O)c(=O)[nH]1` (stereo unspecified) displayed a TGI of more than 100 µM.
The same measure, in the same setting: the same measure for `O=S(=O)(c1ccccc1)C1CN2OC1(S(=O)(=O)c1ccccc1)CC2c1ccc(Br)cc1` (stereo unspecified): more than 100 µM.
`O=Cc1ccc2c(c1-c1c(C=O)ccc3c1OCO3)OCO2` showed a TGI of more than 100 µM.
Regarding `O=C1NC(=NCCc2cccc(Cl)c2)S/C1=C\c1ccc2ncccc2c1`, the GI50 was more than 25 µM and the TGI is more than 25 µM.
In the case of `CC(=O)O[C@H]1CCC2[C@@H]3CCC4Nc5[nH]ncc5C[C@]4(C)C3CC[C@@]21C` (stereo partly specified), the TGI was more than 100 µM.
`Cc1cc(C)nc(NS(=O)(=O)c2ccc(NC(=O)c3cccc4c(Nc5ccc(S(N)(=O)=O)cc5)c5ccccc5nc34)cc2)n1` showed a TGI of more than 100 µM.
On the same count and under the same terms, the figure for `Cc1cc(S(=O)(=O)O)c(NC(=O)C(=O)Cc2cc(=O)oc3cc(O)ccc23)cc1Cl` is more than 100 µM.
